From ChEMBL document CHEMBL4651402, “Screening of ~5500 FDA-approved drugs and clinical candidates for anti-SARS-CoV-2 activity” (2021)

Tested on: SARS-CoV-2
Assay: microbe, parasite or virus in culture
Conditions: Severe acute respiratory syndrome coronavirus 2, Vero C1008, 48 h

Row | Compound | IC50 [µM] | IC50 (read-out: pIC50 (converted)) [µM]
1 | CC(C)(CO)CCCCCCC(C)(C)CO [GEMCADIOL] | > 20 | > 20
2 | CC(=O)OCC1=C(C(=O)O)N2C(=O)[C@@H](N)[C@H]2SC1 | > 20 | > 20
3 | O=C(O)CNC(=O)C1C(=O)N(C2CCCCC2)C(=O)N(C2CCCCC2)C1=O [DAPRODUSTAT] | > 20 | > 20
4 | CNC(=O)Oc1cccc2ccccc12 [CARBARIL] | > 20 | > 20
5 | OCC(O)CO [GLYCERIN] | > 20 | > 20
6 | CCCN1CCC[C@@H](c2cccc(S(C)(=O)=O)c2)C1 | > 20 | > 20
7 | Cc1nc(N2CCOC[C@@H]2C)nc(-n2ccnc2)c1[N+](=O)[O-] | > 20 | > 20
8 | CCOC(=O)C1(c2ccccc2)CCN(CCc2ccc(N)cc2)CC1 [ANILERIDINE] | > 20 | > 20
9 | CN(C(=O)c1c(O)c2ccccc2n(C)c1=O)c1ccccc1 [ROQUINIMEX] | > 20 | > 20
10 | Nc1ncnc2c1ncn2[C@@H]1O[C@H](COP(=O)(O)OP(=O)(O)OP(=O)(O)O)[C@@H](O)[C@H]1O [ADENOSINE TRIPHOSPHATE] | > 20 | > 20
11 | CC[C@]1(O)C[C@@H]2CN(CCc3c([nH]c4ccccc34)[C@@](C(=O)OC)(c3cc4c(cc3OC)N(C)[C@H]3[C@@](O)(C(N)=O)[C@H](O)[C@]5(CC)C=CCN6CC[C@]43[C@@H]65)C2)C1 [VINDESINE] | > 20 | > 20
12 | CCCCCCCCCCCCCCC[C@@H](O)[C@@H](N)CO [DIHYDROSPINGOSINE] | > 20 | > 20
13 | Oc1cccc(O)c1 [RESORCINOL] | > 20 | > 20
14 | CNC(=O)c1cccc2cc(Oc3ccnc4cc(OCC5(N)CC5)c(OC)cc34)ccc12 [LUCITANIB] | > 20 | > 20
15 | CN(CCCCCCCCCCN(C)C(=O)Oc1cccc([N+](C)(C)C)c1)C(=O)Oc1cccc([N+](C)(C)C)c1 | > 20 | > 20
16 | CCC(=O)OC(OP(=O)(CCCCc1ccccc1)CC(=O)N1C[C@H](C2CCCCC2)C[C@H]1C(=O)O)C(C)C (stereo not given in full) | > 20 | > 20
17 | CCCNCC(O)COc1ccccc1C(=O)CCc1ccccc1 (stereo not given) [PROPAFENONE] | > 20 | > 20
18 | CC(C)=CCCC(C)C1CCC2(C)C3=C(CCC12C)C1(C)CCC(O)C(C)(C)C1CC3 (stereo not given) | > 20 | > 20
19 | NCCCC(O)(P(=O)(O)O)P(=O)(O)O [ALENDRONIC ACID] | > 20 | > 20
20 | O=S1(=O)c2cccc3cccc(c23)N1CCCN1CCN(c2ccc(F)cc2)CC1 [FANANSERIN] | > 20 | > 20
21 | CC(=O)Oc1ccc(C(c2ccc(OC(C)=O)cc2)c2ccccn2)cc1 [BISACODYL] | > 20 | > 20
22 | Cn1ccnc1S [METHIMAZOLE] | > 20 | > 20
23 | N=C(N)NC(=N)N1CCOCC1 [MOROXYDINE] | > 20 | > 20
24 | Cn1c(=O)[nH]c2ncn(C)c2c1=O [PARAXANTHINE] | > 20 | > 20
25 | C[C@]12COC(=O)C[C@@H]1CC[C@@H]1[C@@H]2CC[C@@]2(C)[C@H]1CC[C@]2(C)O [OXANDROLONE] | > 20 | > 20
26 | CC(C)CN(C[C@@H](O)[C@H](Cc1ccccc1)NC(=O)O[C@H]1CCOC1)S(=O)(=O)c1ccc(N)cc1 | > 20 | > 20
27 | CC(=O)Oc1cc(O[C@H](C)CCCc2ccccc2)cc2c1[C@@H]1C[C@H](O)CC[C@H]1[C@H](C)N2 [LEVONANTRADOL] | > 20 | > 20
28 | Cc1cccc(C)c1NC(=O)CN1CCCC1 [PYRROCAINE] | > 20 | > 20
29 | C[Si](C)(C)c1cccc(C(=O)C(F)(F)F)c1 | > 20 | > 20
30 | Cc1cccc(/C=N/Nc2cc(N3CCOCC3)nc(OCCc3ccccn3)n2)c1 [APILIMOD] | > 20 | > 20
